The record followed here is US20260076973A1 (priority 2023, published 2026).

The test system of the assay is SARS-CoV-2(delta variant). Kind of assay: microbe, parasite or virus in culture. The class given is cell-based.
Where [1] appears, read: Severe acute respiratory syndrome coronavirus 2, Vero C1008, read-out: IC50.
Setting [2] is: Severe acute respiratory syndrome coronavirus 2, Vero C1008, read-out: IC90.
Setting [3] is: Severe acute respiratory syndrome coronavirus 2, Vero C1008.

Where a name gives a salt, the structure may show the parent alone. Read-outs that look alike come from different tables or passages of the source.

On to `Cc1ccc(Nc2nc(N3CCOCC3)nc(N3CCOCC3)n2)cc1C` [VIRADEM-10884, (3,4-dimethylphenyl)-(4,6-dimorpholin-4-yl-[1,3,5]triazin-2-yl)-amine], for which the 50% inhibitory concentration (IC50) under setting [1] amounted to 389 nM. Under setting [2], the IC90 amounted to 477 nM.

Turning to `Cc1ccc(Nc2nc(Nc3ccc(C)c(C)c3)nc(N3CCOCC3)n2)cc1` [VIRADEM-11141], the IC50 under setting [1] is 125 nM. Also, the IC90 under setting [2] was determined as 150 nM.

Take `CCOC(=O)c1ccc(Nc2nc(Nc3ccc(F)cc3)nc(N3CCOCC3)n2)cc1` [VIRADEM-11660, 4-[4-(4-Fluorophenylamino)-6-morpholin-4-yl-[1,3,5]triazin-2-ylamino]benzoic acid ethyl ester]: the IC50 under setting [1] turned out to be 1860 nM. Besides, the 90% effect concentration (IC90) under setting [2] was greater than 3000 nM.

Consider `Cc1cccc(N2C(N3CCOCC3)=NC(N)=NC2Nc2ccc(Cl)cc2)c1` (stereo not shown) [VIRADEM-11680, N-(4-Chlorophenyl)-6-morpholin-4-yl-N^1-m-tolyl-[1,3,5]triazine-2,4-diamine hydrochloride], for which the 50% inhibitory concentration (IC50) under setting [1] was 428 nM. In addition, the IC90 under setting [2] worked out at 521 nM.

For the compound `Cc1cccc(N2C(N3CCOCC3)=NC(N)=NC2Nc2cccc(Cl)c2)c1` (stereo not shown) [VIRADEM-11781, N-(3-Chlorophenyl)-6-morpholin-4-yl-N^1-m-tolyl-[1,3,5]triazine-2,4-diamine hydrochloride], under setting [1], the half-maximal inhibitory concentration (IC50) is 1280 nM. Further, the IC90 under setting [2] was 1370 nM.

`Cc1ccc(N2C(N3CCOCC3)=NC(N)=NC2Nc2cccc(F)c2)cc1` (stereo not shown) [VIRADEM-11785, N-(3-Fluorophenyl)-6-morpholin-4-yl-N^1-p-tolyl-[1,3,5]triazine-2,4-diamine hydrochloride]: the IC50 under setting [1] came to 559 nM. For the same compound, the IC90 under setting [2] worked out at 690 nM.

`Cc1cccc(N2C(N3CCOCC3)=NC(N)=NC2Nc2cccc(F)c2)c1` (stereo not shown) [VIRADEM-11786, N-(3-Fluorophenyl)-6-morpholin-4-yl-N^1-m-tolyl-[1,3,5]triazine-2,4-diamine hydrochloride]: the IC50 under setting [1] was 371 nM. Also, the IC90 under setting [2] was determined as 396 nM.

`Cc1cccc(N2C(N3CCOCC3)=NC(N)=NC2Nc2ccc(F)cc2)c1` (stereo not shown) [VIRADEM-11787, N-(4-Fluorophenyl)-6-morpholin-4-yl-N^1-m-tolyl-[1,3,5]triazine-2,4-diamine hydrochloride]: the 50% inhibitory concentration (IC50) under setting [1] was found to be 404 nM. For the same compound, the IC90 under setting [2] was found to be 446 nM.

On to `CCOc1ccc(NC2N=C(N)N=C(N3CCOCC3)N2c2cccc(C)c2)cc1` (stereo not shown) [VIRADEM-11794, N-(4-Ethoxyphenyl)-6-morpholin-4-yl-N^1-m-tolyl-[1,3,5]triazine-2,4-diamine hydrochloride], for which the IC50 under setting [1] was 545 nM. Further, the IC90 under setting [2] amounted to 855 nM.

Take `CC(=O)Nc1ccc(Nc2nc(Nc3ccc(Cl)cc3)nc(N3CCOCC3)n2)cc1` [VIRADEM-11847, N-{4-[4-(4-Chlorophenylamino)-6-morpholin-4-yl-[1,3,5]triazin-2-ylamino]-phenyl}-acetamide]: the IC50 under setting [1] was 36 nM. Besides, under setting [2], the concentration for an effect of 90% (IC90) was determined as 46 nM.

On to `CC(=O)c1cccc(Nc2nc(Nc3ccc(Cl)cc3)nc(N3CCOCC3)n2)c1` [VIRADEM-11882, 1-{3-[4-(4-chlorophenylamino)-6-morpholin-4-yl-[1,3,5]triazin-2-ylamino]-phenyl}-ethanone], for which the IC50 under setting [1] is 470 nM. Also, the IC90 under setting [2] was determined as 635 nM.

As for `CCOC(=O)c1ccc(Nc2nc(Nc3ccc(C)c(C)c3)nc(N3CCOCC3)n2)cc1` [VIRADEM-11913, 4-[4-(3,4-Dimethylphenylamino)-6-morpholin-4-yl-[1,3,5]-2-ylamino]-benzoic acid ethyl ester], the IC50 (read-out: IC50) came to 245 nM. Also, under “read-out: IC90”, the IC90 came to 331 nM.

With `Cc1ccc(Nc2nc(Nc3cccc(C(F)(F)F)c3)nc(N3CCOCC3)n2)cc1C` [VIRADEM-11914, N-(3,4-Dimethylphenyl)-6-morpholin-4-yl-N^1-(3-trifluoromethylphenyl)-[1,3,5]triazine-2,4-diamine], the IC50 under setting [1] was 382 nM. Besides, the 90% effect concentration (IC90) under setting [2] is 437 nM.

For `CCOC(=O)c1ccc(Nc2nc(Nc3ccc(C)cc3)nc(N3CCOCC3)n2)cc1` [VIRADEM-11916, 4-(4-Morpholin-4-yl-6-p-tolylamino[1,3,5]-2-ylamino)-benzoic acid ethyl ester], for the setting “read-out: IC50”, the half-maximal inhibitory concentration (IC50) was determined as 559 nM. Further, the IC90 (read-out: IC90) was found to be 707 nM.

With `CC(=O)Nc1ccc(Nc2nc(Nc3ccc(C)c(C)c3)nc(N3CCOCC3)n2)cc1` [VIRADEM-11918, N-{4-[4-(3,4-Dimethylphenylamino)-6-morpholin-4-yl-[1,3,5]triazin-2-ylamino]phenyl}-acetamide], under setting [1], the IC50 worked out at 41 nM. Moreover, under setting [2], the IC90 stood at 60 nM.

As for `CCOC(=O)c1ccc(Nc2nc(Nc3cc(C)cc(C)c3)nc(N3CCOCC3)n2)cc1` [VIRADEM-11934, 4-[4-(3,5-Dimethylphenylamino)-6-morpholin-4-yl-[1,3,5]-2-ylamino]-benzoic acid ethyl ester], the IC50 (read-out: IC50) turned out to be 1020 nM. Moreover, the IC90 (read-out: IC90) came out at 1240 nM.

For the compound `CC(=O)c1cccc(Nc2nc(Nc3ccccc3)nc(N3CCOCC3)n2)c1` [VIRADEM-12125, 1-[3-(4-Morpholin-4-yl-6-phenylamino-[1,3,5]triazin-2-ylamino)-phenyl]-ethanone hydrochloride], the IC50 under setting [1] came out at 584 nM. The concentration for an effect of 90% (IC90) under setting [2] is 1370 nM.

`Cc1cccc(Nc2nc(Nc3ccc(C(C)C)cc3)nc(N3CCOCC3)n2)c1` [VIRADEM-12251, N-(4-Isoproylphenyl)-6-morpholin-4-yl-N^1-m-tolyl-[1,3,5]triazine-2,4-diamine hydrochloride]: the 50% inhibitory concentration (IC50) (read-out: IC50) is 951 nM. The 90% effect concentration (IC90) (read-out: IC90) was determined as 1170 nM.

As for `COc1cccc(NC2N=C(N)N=C(N3CCOCC3)N2c2ccccc2)c1` (stereo not shown) [VIRADEM-12252, N-(3-Methoxyphenyl)-6-morpholin-4-yl-N^1-phenyl-[1,3,5]triazine-2,4-diamine hydrochloride], the IC50 under setting [1] worked out at 357 nM. Besides, the 90% effect concentration (IC90) under setting [2] came to 425 nM.

On to `COC(=O)c1ccc(Nc2nc(Nc3cccc(OC)c3)nc(N3CCOCC3)n2)cc1` [VIRADEM-12329, 4-[4-(3-Methoxyphenylamino)-6-morpholin-4-yl-[1,3,5]triazin-2-ylamino]-benzoic acid methyl ester], for which the IC50 under setting [1] was 368 nM. The IC90 under setting [2] turned out to be 465 nM.

Regarding `Cc1ccc(Nc2nc(N3CCCCCC3)nc(N3CCOCC3)n2)cc1` [VIRADEM-15229, (4-Azepan-1-yl-6-morpholin-4-yl-[1,3,5]triazin-2-yl)-p-tolyl-amine], the IC50 under setting [1] was 1040 nM. Besides, the concentration for an effect of 90% (IC90) under setting [2] stood at 1190 nM.

With `Cc1ccc(Nc2nc(N3CCOCC3)nc(N3CCCc4ccccc43)n2)cc1C` [VIRADEM-15278, [4-(3,4-Dihydro-2-H-quinolin-1-yl)-6-morpholin-4-yl-[1,3,5]triazin-2-yl]-(3,4-dimethylphenyl)-amine], for the setting “read-out: IC50”, the IC50 is 194 nM. The IC90 (read-out: IC90) turned out to be 388 nM.

As for `COc1ccc(Nc2nc(Nc3cccc(C)c3)nc(N3CCOCC3)n2)cc1` [hydrochloride], under setting [3], half-maximal inhibition (IC50) was put at 338 nM and the 90% effect concentration (IC90) was 356 nM.

What is called IC50 is the concentration at which inhibition is half-maximal. As a reminder, the IC90 is the point of the concentration-response curve where the effect stands at 90%.
